pEC50, pKi: −log10 of the molar value. Where a name gives a salt, the structure may show the parent alone. Read-outs that look alike come from different tables or passages of the source.
What was measured:
[1] = system: MCh-induced bronchoconstriction; assay: Einthoven assay: bronchoprotection against methacholine (MCh)-induced bronchoconstriction; type: in vivo, rat; conditions: for inhibition in vivo at 0.1 mg: inhaled or nasal, read-out: Broncho. at 24 h
Procedure: This assay measures the ability of a test compound to provide bronchoprotection against methacholine (MCh)-induced bronchoconstriction in a rat. Male Sprague-Dawley rats (Harlan, Indianapolis, Ind.), weighing between 200 g and 350 g, were used for all studies. Test compound or vehicle (sterile deionized water) were dosed by inhalation (1H) over a 10 min period in a pie shaped inhalation chamber (R+S Molds, San Carlos, Calif.) using 5 mL of dosing solution. […] Rats were dosed with 100 μg of test compound unless otherwise indicated. At predetermined time points, rats were anesthetized with an intraperitoneal (IP) injection of 120 mg/kg inactin (thiobutabarbital). A supplemental dose (40 mg/kg, IP) was administered if the animal responded to physical stimuli (e.g. toe pinch). The surgical site was shaved and a 1-2 cm midline incision of the ventral aspect of the neck was made. The jugular vein was isolated and cannulated with a saline-filled polyethylene catheter (PE-50) to allow IV infusion of MCh. Trachea was dissected free and cannulated with a 14G needle (#NE-014, Small Parts, Miami Lakes, Fla.). After placement of the tracheal cannula, each rat was ventilated using a respirator (Model 683, Harvard Apparatus, Inc., MA) set at a stroke volume of 1 mL/100 g body weight (but not exceeding 2.5 mL volume) and a rate of 90 strokes per minute. A T-connector was placed along the respirator expiratory tubing to allow for measurement of changes in ventilation pressure (VP) using a Biopac transducer that was connected to a Biopac […]) pre-amplifier. Body temperature was maintained at 37° C. using a heating pad. Changes in VP were recorded using the Acknowledge Data Collection Software (Santa Barbara, Calif.). Baseline values were collected for at least 2.5 min. Rats were then challenged with non-cumulative intravenous (IV) infusions of 40 and 80 μg/kg MCh. MCh was infused intravenously for 2.5 minutes from a syringe pump (sp210iw, World Precision Instruments, Inc., Sarasota, Fla.) at a rate of 2 mL/kg/min, with a 2 minute interval between the two doses of MCh. Changes in ventilation pressure (cm H2O) in treated animals are expressed as % inhibition of MCh response relative to control animals. Other bronchoconstrictors, such as histamine and acetylcholine, can be used in place of MCh in this assay. Additionally, guinea pigs can be used instead of rats. […] Inhibition greater than or equal to 30 percent at 24 h is indicative of a long duration of action.

[2] = target: hM3 muscarinic receptor (Homo sapiens (Human), UniProt P20309); assay: Radioligand binding assay for muscarinic receptors ([3H]-NMS displacement, CHO cell membranes)
Chain of hM3 muscarinic receptor (P20309 whole entry): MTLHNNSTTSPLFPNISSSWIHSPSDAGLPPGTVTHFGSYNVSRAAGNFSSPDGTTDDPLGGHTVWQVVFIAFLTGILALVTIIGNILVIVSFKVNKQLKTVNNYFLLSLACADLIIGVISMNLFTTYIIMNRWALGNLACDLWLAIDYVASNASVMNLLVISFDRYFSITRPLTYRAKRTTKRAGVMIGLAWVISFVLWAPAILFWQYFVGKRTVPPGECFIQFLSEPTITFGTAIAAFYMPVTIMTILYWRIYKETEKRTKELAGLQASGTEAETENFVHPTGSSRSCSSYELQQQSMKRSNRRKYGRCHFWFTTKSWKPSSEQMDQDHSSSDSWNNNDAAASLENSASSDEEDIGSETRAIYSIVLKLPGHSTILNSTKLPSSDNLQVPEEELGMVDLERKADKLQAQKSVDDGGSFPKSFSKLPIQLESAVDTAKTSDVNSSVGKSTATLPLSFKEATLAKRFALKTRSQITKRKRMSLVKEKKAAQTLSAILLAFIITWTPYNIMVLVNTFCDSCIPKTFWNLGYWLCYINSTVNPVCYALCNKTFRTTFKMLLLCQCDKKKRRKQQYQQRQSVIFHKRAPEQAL
Procedure: The cells were grown in a 5% CO2, 37° C. incubator and lifted with 2 mM EDTA in dPBS. Cells were collected by 5 minute centrifugation at 650×g, and cell pellets were either stored frozen at −80° C. or membranes were prepared immediately for use. For membrane preparation, cell pellets were resuspended in lysis buffer and homogenized with a Polytron PT-2100 tissue disrupter (Kinematica AG; 20 seconds×2 bursts). Crude membranes were centrifuged at 40,000×g for 15 minutes at 4° C. The membrane pellet was then resuspended with re-suspension buffer and homogenized again with the Polytron tissue disrupter. The protein concentration of the membrane suspension was determined by the method described in Lowry et al., 1951, […], 193, 265. All membranes were stored frozen in aliquots at −80° C. or used immediately. […] The membranes were briefly homogenized using a Polytron tissue disruptor (10 seconds) prior to assay plate addition. […] The test compounds were initially dissolved to a concentration of 400 μM in dilution buffer and then serially diluted 5× with dilution buffer to final concentrations ranging from 10 μM to […]. The order of addition and volumes added to the assay plates were as follows: 25 μL radioligand, 25 μL diluted test compound, and 50 μL membranes. Assay plates were incubated for 6 hours at 37° C. […] Filter plates were rinsed three times with wash buffer (10 mM HEPES) to remove unbound radioactivity. The plates were then air-dried and 50 μL Microscint-20 liquid scintillation fluid (PerkinElmer, Inc.) were added to each well. The plates were then counted in a PerkinElmer Topcount liquid scintillation counter (PerkinElmer, Inc.). Binding data were analyzed by nonlinear regression analysis with the GraphPad Prism Software package (GraphPad Software, Inc., San Diego, Calif.) using the one-site competition model. […] These summary statistics were then converted back to K; values for data reporting.

[3] = target: hβ2 adrenergic receptor (Homo sapiens (Human), UniProt P07550); assay: Assay for determining adrenergic receptor agonist potency (cAMP Flashplate, HEK-293 cells); type: cell-based; conditions: data rounded to nearest 1 nM
Chain of hβ2 adrenergic receptor (P07550 whole entry): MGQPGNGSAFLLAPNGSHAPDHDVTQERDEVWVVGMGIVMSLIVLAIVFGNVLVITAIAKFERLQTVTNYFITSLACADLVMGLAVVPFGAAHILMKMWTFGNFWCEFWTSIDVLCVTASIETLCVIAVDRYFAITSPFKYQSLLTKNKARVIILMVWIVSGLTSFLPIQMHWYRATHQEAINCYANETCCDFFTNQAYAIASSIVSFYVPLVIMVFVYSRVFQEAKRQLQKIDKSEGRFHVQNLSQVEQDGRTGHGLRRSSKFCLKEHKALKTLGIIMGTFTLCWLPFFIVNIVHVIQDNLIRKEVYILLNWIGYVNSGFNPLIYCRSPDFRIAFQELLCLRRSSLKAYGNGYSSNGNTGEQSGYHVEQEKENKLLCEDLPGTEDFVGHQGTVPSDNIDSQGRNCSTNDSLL
Procedure: The cell monolayer was lifted with 2 mM EDTA in PBS. Cells were pelleted by centrifugation at 1,000 rpm, and cell pellets were either stored frozen at −80° C. or membranes were prepared immediately for use. cAMP assays were performed in a radioimmunoassay format using the Flashplate Adenylyl Cyclase Activation Assay System with [^125I]-cAMP (NEN SMP004, PerkinElmer Life Sciences Inc., Boston, Mass.), according to the manufacturers instructions. […] Cells were rinsed with PBS and detached in dPBS (Dulbecco's Phosphate Buffered Saline, without CaCl2 and MgCl2) containing 2 mM EDTA or Trypsin-EDTA solution (0.05% trypsin/0.53 mM EDTA). After counting cells in Coulter cell counter, cells were pelleted by centrifugation at 1,000 rpm and re-suspended in stimulation buffer containing TBMX (PerkinElmer Kit) pre-warmed to room temperature to a concentration of 1.6×10^6 to 2.8×10^6 cells/mL. About 40,000 to 80,000 cells per well were used in this assay. […] Reactions were incubated for 10 min at 37° C. and stopped by adding 100 μL of cold detection buffer containing [^125I]-cAMP (NEN SMP004, PerkinElmer Life Sciences, Boston, Mass.). […] Data were analyzed by nonlinear regression analysis with the GraphPad Prism Software package (GraphPad Software, Inc., San Diego, Calif.) with the sigmoidal equation. The Cheng-Prusoff equation (Cheng Y, and Prusoff W H., Biochemical Pharmacology, 1973, 22, 23, 3099-108) was used to calculate the EC50 values.

[4] = rat, 100 μg by inhalation, 24 h after administration
[5] = hM3 Muscarinic Receptor Binding, data rounded to nearest 0.1 nM

SMILES	inhibition in vivo at 0.1 mg [1, 4]	pKi [2, 5]	pEC50 [3]	pKi [2]	inhibition in vivo at 0.1 mg ([1]; Rattus norvegicus, 24 h)	Broncho. at 24 h [1, 4]
COc1cc(NC(=O)c2cccc(N(C)C(=O)CCN3CCC(OC(=O)Nc4ccccc4-c4ccccc4)CC3)c2)c(Cl)cc1CNC[C@H](O)c1ccc(O)c2[nH]c(=O)ccc12 [Compound I-31]	> 30%	9.70	9.00			
CC(Cc1ccc(CNC(=O)c2cccc(N(C)C(=O)CCN3CCC(OC(=O)Nc4ccccc4-c4ccccc4)CC3)c2)cc1)NC[C@H](O)c1ccc(O)c2[nH]c(=O)ccc12 (stereo partly drawn) [Compound I-46]	> 30%		9.00	10.00		
C[C@@H](Cc1cccc(CC(=O)NCCCN(C)C(=O)CCN2CCC(OC(=O)Nc3ccccc3-c3ccccc3)CC2)c1)NC[C@H](O)c1ccc(O)c2[nH]c(=O)ccc12 [Compound I-13, Biphenyl-2-ylcarbamic Acid 1-[2-({3-[2-(3-{(S)-2-[(R)-2-Hydroxy-2-(8-hydroxy-2-oxo-1,2-dihydroquinolin-5-yl)ethylamino]propyl}phenyl)acetylamino]-propyl}methylcarbamoyl)ethyl]piperidin-4-yl Ester Ditrifluoroacetic Acid Salt]			9.00	10.00	> 30%	
CN(CCCCC(=O)Nc1ccc(CCNC[C@H](O)c2ccc(O)c3[nH]c(=O)ccc23)cc1)C(=O)CCN1CCC(OC(=O)Nc2ccccc2-c2ccccc2)CC1 [Compound I-21]	> 30%		9.00	10.00		
Cc1ccc(C(=O)Nc2ccc(CNC[C@H](O)c3ccc(O)c4[nH]c(=O)ccc34)cc2)cc1N(C)C(=O)CCN1CCC(OC(=O)Nc2ccccc2-c2ccccc2)CC1 [Compound I-26]	> 30%		9.00	9.70		
C[C@@H](Cc1ccc(CNC(=O)c2cccc(N(C)C(=O)CCN3CCC(OC(=O)Nc4ccccc4-c4ccccc4)CC3)c2)cc1)NC[C@H](O)c1ccc(O)c2[nH]c(=O)ccc12 [Compound I-49]	> 30%		9.00	10.00		
COc1ccc(CC(=O)NCc2ccc(N(C)C(=O)CCN3CCC(OC(=O)Nc4ccccc4-c4ccccc4)CC3)cc2)cc1CC(C)NC[C@H](O)c1ccc(O)c2[nH]c(=O)ccc12 (stereo partly drawn) [Compound I-81]	> 30%	10.00	9.00			
CC(Cc1cccc(CC(=O)NCCCN(C)C(=O)CCN2CCC(OC(=O)Nc3ccccc3-c3ccccc3)CC2)c1)NC[C@H](O)c1ccc(O)c2[nH]c(=O)ccc12 (stereo partly drawn) [Compound I-11]	> 30%		9.00	10.00		
CC(Cc1cccc(CC(=O)NCc2ccc(N(C)C(=O)CCN3CCC(OC(=O)Nc4ccccc4-c4ccccc4)CC3)cc2)c1)NC[C@H](O)c1ccc(O)c2[nH]c(=O)ccc12 (stereo partly drawn) [Compound I-77]	> 30%		9.00	10.00		
CC(Cc1ccc(CC(=O)NCc2ccc(N(C)C(=O)CCN3CCC(OC(=O)Nc4ccccc4-c4ccccc4)CC3)cc2)cc1)NC[C@H](O)c1ccc(O)c2[nH]c(=O)ccc12 (stereo partly drawn) [Compound I-80]		9.70	9.00			No
C[C@H](Cc1cccc(CCNC(=O)c2ccc(N(C)C(=O)CCN3CCC(OC(=O)Nc4ccccc4-c4ccccc4)CC3)cc2)c1)NC[C@H](O)c1ccc(O)c2[nH]c(=O)ccc12 [Compound I-55]	> 30%	9.70	9.00			
C[C@@H](Cc1cccc(CNC(=O)Cc2ccc(N(C)C(=O)CCN3CCC(OC(=O)Nc4ccccc4-c4ccccc4)CC3)cc2)c1)NC[C@H](O)c1ccc(O)c2[nH]c(=O)ccc12 [Compound I-69]	> 30%		9.00	10.00		
CC(Cc1cccc(NC(=O)CCCN(C)C(=O)CCN2CCC(OC(=O)Nc3ccccc3-c3ccccc3)CC2)c1)NC[C@H](O)c1ccc(O)c2[nH]c(=O)ccc12 (stereo partly drawn) [Compound I-10]	> 30%		9.00	10.00		
Cc1ccc(C(=O)Nc2cccc(CC(C)NC[C@H](O)c3ccc(O)c4[nH]c(=O)ccc34)c2)cc1N(C)C(=O)CCN1CCC(OC(=O)Nc2ccccc2-c2ccccc2)CC1 (stereo partly drawn) [Compound I-37]			9.00	9.70		No
C[C@@H](Cc1cccc(NC(=O)c2cccc(N(C)C(=O)CCN3CCC(OC(=O)Nc4ccccc4-c4ccccc4)CC3)c2)c1)NC[C@H](O)c1ccc(O)c2[nH]c(=O)ccc12 [Compound I-39]			9.00	9.70		No
C[C@H](Cc1cccc(CC(=O)NCCCN(C)C(=O)CCN2CCC(OC(=O)Nc3ccccc3-c3ccccc3)CC2)c1)NC[C@H](O)c1ccc(O)c2[nH]c(=O)ccc12 [Compound I-12]			9.00	10.00		No
COc1cc(NC(=O)Cc2cccc(N(C)C(=O)CCN3CCC(OC(=O)Nc4ccccc4-c4ccccc4)CC3)c2)c(Cl)cc1CNC[C@H](O)c1ccc(O)c2[nH]c(=O)ccc12 [Compound I-61]	> 30%	10.00	9.00			
Cc1ccc(C(=O)Nc2ccc(CCNC[C@H](O)c3ccc(O)c4[nH]c(=O)ccc34)cc2)cc1N(C)C(=O)CCN1CCC(OC(=O)Nc2ccccc2-c2ccccc2)CC1 [Compound I-35]						Yes (Bronchoprotective effect present at 24 h, e.g., ≧30% inhibition of the MCh response at 24 h in the rat Einthoven assay (100 μg))
C[C@@H](Cc1cccc(CCNC(=O)Cc2ccc(N(C)C(=O)CCN3CCC(OC(=O)Nc4ccccc4-c4ccccc4)CC3)cc2)c1)NC[C@H](O)c1ccc(O)c2[nH]c(=O)ccc12 [Compound I-87]						Yes (Bronchoprotective effect present at 24 h, e.g., ≧30% inhibition of the MCh response at 24 h in the rat Einthoven assay (100 μg))
C[C@H](Cc1ccc(NC(=O)c2cccc(N(C)C(=O)CCN3CCC(OC(=O)Nc4ccccc4-c4ccccc4)CC3)c2)cc1)NC[C@H](O)c1ccc(O)c2[nH]c(=O)ccc12 [Compound I-42]						No
